ChEMBL document CHEMBL5030542, “Pillar[5]arene-Based Polycationic Glyco[2]rotaxanes Designed as Pseudomonas aeruginosa Antibiofilm Agents” (J Med Chem, 2021)
Calls of active or inactive are those of the source. No cut-off for these calls is given here.

Key:
[1] = target: Fucose-binding lectin PA-IIL (Pseudomonas aeruginosa (strain ATCC 15692 / DSM 22644 / CIP 104116 / JCM14847 / LMG 12228 / 1C / PRS 101 / PAO1), UniProt Q9HYN5); assay: Binding affinity to recombinant Pseudomonas aeruginosa lecB expressed in Escherichia coli assessed as dissociation constant by isothermal titration calorimetry
Chain of Fucose-binding lectin PA-IIL (Q9HYN5 whole entry): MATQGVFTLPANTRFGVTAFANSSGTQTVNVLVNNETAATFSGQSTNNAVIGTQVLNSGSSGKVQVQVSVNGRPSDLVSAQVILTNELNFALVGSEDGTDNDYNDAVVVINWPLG

Pseudomonas aeruginosa [2] = assay: Binding affinity to recombinant Pseudomonas aeruginosa LecA expressed in Escherichia coli assessed as change in entropy by isothermal titration calorimetry
[3] = target: Fucose-binding lectin PA-IIL (Pseudomonas aeruginosa (strain ATCC 15692 / DSM 22644 / CIP 104116 / JCM14847 / LMG 12228 / 1C / PRS 101 / PAO1)) (UniProt Q9HYN5); assay: Binding affinity to recombinant Pseudomonas aeruginosa LecB expressed in Escherichia coli assessed as change in entropy by isothermal titration calorimetry
Chain of Fucose-binding lectin PA-IIL (Pseudomonas aeruginosa (strain ATCC 15692 / DSM 22644 / CIP 104116 / JCM14847 / LMG 12228 / 1C / PRS 101 / PAO1)) (Q9HYN5 as listed by the source): as the sequence (Q9HYN5 whole entry) above

Pseudomonas aeruginosa [4] = assay: Antibacterial activity against Pseudomonas aeruginosa PAO1 assessed as inhibition of bacterial growth for complete inhibition of bacterial growth incubated for 24 hrs; assay type: functional
Pseudomonas aeruginosa [5] = assay: Anti-bioflim activity against Pseudomonas aeruginosa PAO1 assessed as inhibition of bioflim formation measured at MBIC50 concentration incubated for 24 hrs by crystal violet staining based assay; assay type: functional
[6] = target: Fucose-binding lectin PA-IIL (Pseudomonas aeruginosa (strain ATCC 15692 / DSM 22644 / CIP 104116 / JCM14847 / LMG 12228 / 1C / PRS 101 / PAO1)) (UniProt Q9HYN5); assay: Binding affinity to recombinant Pseudomonas aeruginosa LecB expressed in Escherichia coli assessed as change in enthalpy by isothermal titration calorimetry
[7] = target: Fucose-binding lectin PA-IIL (Pseudomonas aeruginosa (strain ATCC 15692 / DSM 22644 / CIP 104116 / JCM14847 / LMG 12228 / 1C / PRS 101 / PAO1)) (UniProt Q9HYN5); assay: Binding affinity to recombinant Pseudomonas aeruginosa LecB expressed in Escherichia coli assessed as gibbs free energy change by isothermal titration calorimetry
Pseudomonas aeruginosa [8] = assay: Binding affinity to recombinant Pseudomonas aeruginosa LecA expressed in Escherichia coli assessed as gibbs free energy change by isothermal titration calorimetry
[9] = Binding affinity to recombinant Pseudomonas aeruginosa LecA expressed in Escherichia coli assessed as dissociation constant by isothermal titration calorimetry
Pseudomonas aeruginosa [10] = assay: Anti-bioflim activity against Pseudomonas aeruginosa PAO1 assessed as inhibition of bioflim formation incubated for 24 hrs by crystal violet staining based assay; assay type: functional
Pseudomonas aeruginosa [11] = assay: Binding affinity to recombinant Pseudomonas aeruginosa LecA expressed in Escherichia coli assessed as change in enthalpy by isothermal titration calorimetry

Kd [1] [nM] | -TΔS (Pseudomonas aeruginosa [2]) [kcal/mol] | deltaS [3] [kcal/mol] | MIC (Pseudomonas aeruginosa [4]) [µM] | deltaH [6] [kcal/mol] | deltaG [7] [kcal/mol] | deltaG (Pseudomonas aeruginosa [8]) [kcal/mol] | deltaH (Pseudomonas aeruginosa [11]) [kcal/mol] | deltaS (Pseudomonas aeruginosa [2]) [kcal/mol] | Structure (SMILES) | MBIC50 (Pseudomonas aeruginosa [5]) | Kd [9] [nM] | MBIC50 (Pseudomonas aeruginosa [10]) [µM] | inhibition (INH) (Pseudomonas aeruginosa [5]) [%]
474 | 16.6 | 6.07 | > 150 | -14.7 | -8.63 | -8.46 | -25.1 |  | C[C@@H]1O[C@@H](OCCOCCn2cc(COCC(COCc3cn(CCOCCO[C@@H]4O[C@@H](C)[C@@H](O)[C@@H](O)[C@@H]4O)nn3)N=[N+]=[N-])nn2)[C@@H](O)[C@H](O)[C@@H]1O.OC[C@H]1O[C@@H](OCc2cn(CCCOc3cc4c(OCCn5cc(CO[C@@H]6O[C@H](CO)[C@H](O)[C@H](O)[C@H]6O)nn5)cc3Cc3cc(OCCn5cc(CO[C@@H]6O[C@H](CO)[C@H](O)[C@H](O)[C@H]6O)nn5)c(cc3OCCn3cc(CO[C@@H]5O[C@H](CO)[C@H](O)[C@H](O)[C@H]5O)nn3)Cc3cc(OCCn5cc(CO[C@@H]6O[C@H](CO)[C@H](O)[C@H](O)[C@H]6O)nn5)c(cc3OCCn3cc(CO[C@@H]5O[C@H](CO)[C@H](O)[C@H](O)[C@H]5O)nn3)Cc3cc(OCCn5cc(CO[C@@H]6O[C@H](CO)[C@H](O)[C@H](O)[C@H]6O)nn5)c(cc3OCCn3cc(CO[C@@H]5O[C@H](CO)[C@H](O)[C@H](O)[C@H]5O)nn3)Cc3cc(OCCCn5cc(CO[C@@H]6O[C@H](CO)[C@H](O)[C@H](O)[C@H]6O)nn5)c(cc3OCCn3cc(CO[C@@H]5O[C@H](CO)[C@H](O)[C@H](O)[C@H]5O)nn3)C4)nn2)[C@H](O)[C@@H](O)[C@H]1O | inactive | 646 | >150 | 
 |  |  |  |  |  |  |  |  | NC[C@H]1O[C@H](O[C@H]2[C@H](O)[C@@H](O[C@H]3O[C@H](CO)[C@@H](O)[C@H](N)[C@H]3O)[C@H](N)C[C@@H]2N)[C@H](N)C[C@@H]1O [TOBRAMYCIN] |  |  | 2 | 92
 |  |  |  |  |  | -9.35 | -37.5 | 28.2 | OC[C@H]1O[C@@H](OCc2cn(CCOc3cc4c(OCCn5cc(CO[C@@H]6O[C@H](CO)[C@H](O)[C@H](O)[C@H]6O)nn5)cc3Cc3cc(OCCn5cc(CO[C@@H]6O[C@H](CO)[C@H](O)[C@H](O)[C@H]6O)nn5)c(cc3OCCn3cc(CO[C@@H]5O[C@H](CO)[C@H](O)[C@H](O)[C@H]5O)nn3)Cc3cc(OCCn5cc(CO[C@@H]6O[C@H](CO)[C@H](O)[C@H](O)[C@H]6O)nn5)c(cc3OCCn3cc(CO[C@@H]5O[C@H](CO)[C@H](O)[C@H](O)[C@H]5O)nn3)Cc3cc(OCCn5cc(CO[C@@H]6O[C@H](CO)[C@H](O)[C@H](O)[C@H]6O)nn5)c(cc3OCCn3cc(CO[C@@H]5O[C@H](CO)[C@H](O)[C@H](O)[C@H]5O)nn3)Cc3cc(OCCn5cc(CO[C@@H]6O[C@H](CO)[C@H](O)[C@H](O)[C@H]6O)nn5)c(cc3OCCn3cc(CO[C@@H]5O[C@H](CO)[C@H](O)[C@H](O)[C@H]5O)nn3)C4)nn2)[C@H](O)[C@@H](O)[C@H]1O |  | 145 |  | 
 |  |  |  |  |  | -5.81 | -4.54 |  | CO[C@@H]1O[C@H](CO)[C@H](O)[C@H](O)[C@H]1O |  | 55700 |  | 
